The values below come from patent publication US6444643B1, “Methods of using inhibitors of cyclophilin rotamase activity to affect neurological activity” (priority 1995, dated 2002).

Like-named read-outs stand apart in the source and are kept apart here. Numbered stars: 1 amine (or outer) side, 2 acyl side, 3 side chain; on linkers, the order of the positions; unused ones are H or OH. Square brackets hold non-standard residues; d marks the D form. Peptide text beside a SMILES is read from it. MeBmt = C/C=C/C[C@@H](C)[C@@H](O)[C@H](NC)C(=O)O; X1 = C[C@@H](O)[C@@](C)(C(=O)[*:2])N(C)[*:1]; NMeL = CN[C@@H](CC(C)C)C(=O)O; NMeV = CN[C@H](C(=O)O)C(C)C; NMeAbu = CC[C@H](NC)C(=O)O; Abu = CC[C@H](N)C(=O)O; Dha = C=C(N)C(=O)O; Sar = CNCC(=O)O

One assay deals with cyclophilin A (Homo sapiens, UniProt P62937). Kind of assay: Inhibition of peptidyl-prolyl isomerase (rotamase) activity of cyclophilin, chymotrypsin-coupled assay. Format: biochemical. The procedure: We evaluated the potencies of drugs in binding to cyclophilin A by examining inhibition of peptidyl prolyl-isomerase activity (Table 1).
The inhibition of this reaction caused by the addition of different concentrations of inhibitor is determined, and the data is analyzed as a change in first-order rate constant as a function of inhibitor concentration to yield the apparent Ki values. The absorbance at 390 nm versus time is monitored for 90 sec using a spectrophotometer and the rate constants are determined from the absorbance versus. time data files.

In assay [1] the test system is chick dorsal root ganglia explants. Kind of assay: Chick dorsal root ganglion cultures and neurite outgrowth. The assay is classed as cell-based. The following applies: for Neurotrophic Potency, Neurite Outgrowth in Chick DRG: relative to cyclosporin A, 48 hours after drug treatment.
Assay [2] has as its system PC12 cells and sensory neurons, namely dorsal root ganglion cells (DRGS). As to conditions: picomolar concentrations; cited from earlier work.
[3] abbreviates: apparent Ki, substrate N-succinyl-Ala-Ala-Pro-Phe-p-nitroanilide, read-out: Ki, cyclophilin inhibition.

Chain of cyclophilin A (P62937 whole entry, species assumed): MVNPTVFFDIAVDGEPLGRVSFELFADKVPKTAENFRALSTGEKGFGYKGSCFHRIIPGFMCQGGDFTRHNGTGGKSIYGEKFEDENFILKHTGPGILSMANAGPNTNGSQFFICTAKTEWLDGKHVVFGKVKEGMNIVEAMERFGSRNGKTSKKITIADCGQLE

As for `CCCC[C@@H](C)[C@@H](O)[C@H]1C(=O)N[C@@H](CC)C(=O)N(C)CC(=O)N(C)[C@@H](CC(C)C)C(=O)N[C@@H](C(C)C)C(=O)N(C)[C@@H](CC(C)C)C(=O)N[C@@H](C)C(=O)N[C@H](C)C(=O)N(C)[C@@H](CC(C)C)C(=O)N(C)[C@@H](CC(C)C)C(=O)N(C)[C@@H](C(C)C)C(=O)N1C` [Example 2, dihydro-CsA], the Ki at cyclophilin A (setting [3]) was found to be 100 nM. For the same compound, in assay [1], the “Neurotrophic Potency, Neurite Outgrowth in Chick DRG” value (from here on “Neurotrophic Potency”) is listed as “+”.

On to `C=C1NC(=O)[C@H](C)NC(=O)[C@H](CC(C)C)N(C)C(=O)[C@H](C(C)C)NC(=O)[C@H](CC(C)C)N(C)C(=O)CN(C)C(=O)[C@H](CC)NC(=O)[C@H]([C@H](O)[C@H](C)C/C=C/C)N(C)C(=O)[C@H](C(C)C)N(C)C(=O)[C@H](CC(C)C)N(C)C(=O)[C@H](CC(C)C)N(C)C1=O` [Example 3, [dehydro-Ala]^8-CsA] (cyclo(A[Dha][NMeL][NMeL][NMeV][MeBmt][Abu][Sar][NMeL]V[NMeL])), for which, at cyclophilin A (setting [3]), the Ki stood at 75 nM. Further, the “Neurotrophic Potency” value in assay [1] is recorded as “+”.

`C/C=C/C[C@@H](C)[C@@H](O)[C@H]1C(=O)N[C@@H](CC)C(=O)N(C)CC(=O)N(C)[C@@H](C(C)C)C(=O)N[C@@H](C(C)C)C(=O)N(C)[C@@H](CC(C)C)C(=O)N[C@@H](C)C(=O)N[C@H](C)C(=O)N(C)[C@@H](CC(C)C)C(=O)N(C)[C@@H](CC(C)C)C(=O)N(C)[C@@H](C(C)C)C(=O)N1C` [Example 4, [MeVal]^4-CsA] (cyclo([MeBmt][Abu][Sar][NMeV]V[NMeL]A[dA][NMeL][NMeL][NMeV])) showed a Ki on cyclophilin A of 10 nM. Further, the “Neurotrophic Potency” value in assay [1] is recorded as “+++”.

Consider `C/C=C/C[C@@H](C)[C@@H](O)[C@H]1C(=O)N[C@@H](CC)C(=O)N(C)CC(=O)N(C)[C@@H](CC)C(=O)N[C@@H](C(C)C)C(=O)N(C)[C@@H](CC(C)C)C(=O)N[C@@H](C)C(=O)N[C@H](C)C(=O)N(C)[C@@H](CC(C)C)C(=O)N(C)[C@@H](CC(C)C)C(=O)N(C)[C@@H](C(C)C)C(=O)N1C` [Example 5, [Me-homoAla]^4-CsA] (cyclo([MeBmt][Abu][Sar][NMeAbu]V[NMeL]A[dA][NMeL][NMeL][NMeV])), for which the “Neurotrophic Potency” value in assay [1] is listed as “+++”.

`C/C=C/C[C@@H](C)[C@@H](O)[C@H]1C(=O)N[C@@H](CC)C(=O)N(C)CC(=O)N(C)[C@@](C)([C@@H](C)O)C(=O)N[C@@H](C(C)C)C(=O)N(C)[C@@H](CC(C)C)C(=O)N[C@@H](C)C(=O)N[C@H](C)C(=O)N(C)[C@@H](CC(C)C)C(=O)N(C)[C@@H](CC(C)C)C(=O)N(C)[C@@H](C(C)C)C(=O)N1C` [Example 6, [Me-(a-methyl)Thr]^4-CsA] (cyclo([MeBmt][Abu][Sar][X1]V[NMeL]A[dA][NMeL][NMeL][NMeV])): the “Neurotrophic Potency” value in assay [1] is “+++”.

For the compound “cyclosporin A [Example 1, reference compound]”, the EC50 in assay [1] (chick DRG explants, from dose-response curves (FIG. 1), read-out: ED50, the dose at which 50% of the maximal response was elicited (neurite outgrowth)) turned out to be 50 nM. Also, the “Neurotrophic Potency” value in assay [1] is reported as “+++”. For the same compound, the neurite outgrowth entry in assay [2] was “stimulates neurite out growth”.
